{
  "source": "patent US9957287B2",
  "about": "“Methods and compositions to treat type-1 and type-2 diabetes” (CORNELL UNIVERSITY, priority 2016, dated 2018)",
  "test_system": "β cells of DKO mice fed a HFD",
  "assay": "MEK162 treatment in vivo of TLR2/TLR4 DKO mice on HFD, histological analysis",
  "parameters": "species or system mouse",
  "method": "For S961 studies, 45-week-old mice under a LFD or HFD were anesthetized and subcutaneously implanted with osmotic pumps (ALZET) filled with insulin receptor antagonist S961 4 or vehicle PBS. Mice were infused with S961 at the dose of 10 nmoles/week for 2 weeks, followed by euthanization and histological analysis of islets. For MEK162 studies, TLR2/TLR4 DKO mice on HFD for 8 weeks were orally gavaged with MEK162 (20 mg/kg body weight, LC laboratories) or vehicle, twice daily for 2 days, followed by euthanization and histological analysis.\nFor quantification of β cell area, six independent pancreatic tissue sections from 3-4 mice were randomly selected. Total insulin-positive and total pancreas area was measured using the Aperio Imagescope and ImageJ, from which percentage of insulin-positive area was calculated. For quantitation of β cell proliferation, cytoplasmic insulin and nuclear Ki67 double-positive cells were counted as proliferating β cells. Percent of proliferating cells were calculated by dividing the number of Ki67 and insulin-double positive cells by insulin-positive cells of each islet. Islets from 3-4 mice in each group with ˜200-400 β cells in LFD and ˜2,000-7,300 β cells in HFD cohorts were analyzed using the ImageJ software.\nPancreas was fixed in 4% paraformaldehyde, embedded in paraffin, and sectioned by Cornell Histology Core Facility. Ten-micrometer-thick paraffin sections were stained with hematoxylin/eosin. For staining of insulin with immunofluorescence, paraffinembedded sections were rehydrated by sequentially washing in xylene, 100%, 95%, 75% ethanol and water. Then slides were boiled in […] for antigen exposure. After blocking using 5% donkey serum, primary guinea pig anti-rat insulin antibody (Linco, 1:200) were applied and incubated overnight at 4° C., followed with washes and incubation with FITC-conjugated donkey anti-guinea pig IgG (Jackson ImmunoResearch, 1:200). […] Fluorescence Images were captured under a Zeiss LSM710 confocal microscope at Cornell Biotechnology Resource Center Imaging Facility. […]",
  "key": {"[1]": {"conditions": "DKO mice on HFD for 8 weeks, MEK162 oral 20 mg/kg twice daily for the last 2 days"}},
  "data": [
    {"smiles": "Cn1cnc2c(F)c(Nc3ccc(Br)cc3F)c(C(=O)NOCCO)cc21", "note": "[MEK162]", "values": [
      {"measurement": "ERK activation", "setting": "DKO mice fed a HFD, MEK162 oral 20 mg/kg twice daily for 2 days", "value": "blocked"},
      {"measurement": "nuclear entry of Cyclin D2", "setting": "[1]", "value": "abolished"},
      {"measurement": "β cell proliferation (Ki67-positive β cells)", "setting": "[1]", "value": "abolished"}
    ]}
  ]
}
